The values that follow come from US8784898B2, “Methods of wound care and treatment” (Revalesio Corporation, priority 2006, dated 2014).

This assay relates to Methicillin-Resistant Staphylococcus Aureus (MRSA). The experiment in a line: MRSA bacteriocidal effects in combination with oxacillin. Format: cell-based. Set-up: concentration or dose not given beside the values.

In the case of `Cc1onc(-c2ccccc2)c1C(=O)N[C@@H]1C(=O)N2[C@@H]1SC(C)(C)[C@@H]2C(=O)O` [Drug, oxacillin], the “Percentage of plates with no growth” value (0 min) is recorded as 16.67%; the “Percentage of plates with no growth” value (30 min) came to 0.00%; the “Percentage of plates with no growth” value (120 min) came to 0.00%; the “Percentage of plates with no growth” value (240 min) is on record as 0.00%; the “Percentage of plates with no growth” value (480 min) was determined as 0.00%; the “Percentage of plates with no growth” value (1080 min) was determined as 0.00%. The “Percentage of plates with no growth” value (1440 min) is given as 0.00%.
